A short description of data set [1]: Pharmacokinetic study by intravenous administration to a rat. The following applies: plasma, 1 mg/kg; intravenous single dose, 1 mg/mL solution at 1 mL/kg, Wistar rat, active form; read-out: Total body clearance CLtot (converted). It counts as in vivo. The protocol:
Pharmacokinetic Study by Intravenous Administration to a Rat
After the compounds of the present invention wherein R11 to R141 are a hydroxyl group, which were active forms, were weighed by a scale, they were adjusted by dimethylsulfoxide to become 10 mg/mL. Polyethylene glycol 400 and distilled water were added thereto to prepare 1 mg/mL of an administration solution. 1 mg/mL of the administration solution was intravenously administered as a single dose to a Wistar rat in an amount of 1 mL/kg. 1, 5, 10, 30, 60 and 180 minutes later, the drug concentration in the blood plasma obtained by blood drawing from its cervical vein over time under anesthesia was determined with LC/MS. From the obtained results, the area under the plasma concentration time curve from zero to time infinity (AUCinf (iv)) was calculated in accordance with the trapezoidal method of pharmacokinetic analysis. The total body clearance (CLtot, [L/hr/kg]) was calculated as an index of drug disappearance in the blood plasma from a dose [mg/kg] and AUC [μg×hr/mL] in accordance with the formula: CLtot=Dose÷AUCinf(iv).

Data set [2] has as its target T1, VCAM-1/α4β1 integrin binding (Homo sapiens, UniProt P05556+P13612).
T1 construct: Jurkat (ATCC TIB-152), known to express integrin α4β1; endogenous in cells; host or cells: Jurkat (ATCC TIB-152)
The data set can be described thus: Assay of antagonistic activity to VCAM-1/α4β1 integrin binding under the existence of blood serum (Jurkat cell adhesion to VCAM-1/Fc). Format: cell-based. The settings on record: Jurkat cells, recombinant human VCAM-1/Fc, 50% human blood serum. The protocol: Assay of Antagonistic Activity to VCAM-1/α4β1 Integrin Binding Under the Existence of Blood Serum
The capacity of a test substance antagonistic to the binding of cell strain of human T cells, Jurkat (ATCC TIB-152), known to express integrin α4β1, to VCAM-1 was determined.
Fifty μl/well of a solution (500 ng/ml) of recombinant human VCAM-1/Fc (R & D systems) diluted with buffer A (0.1 M NaHCO3, pH 9.6) was added to a 96-well microtiter plate (Nunc Maxisorp). After the incubation at 4° C. overnight and washing once with PBS, a buffer (buffer B) obtained by diluting Block Ace (Snow Brand Milk Products Co., Ltd.) with PBS to ½ concentration was added in an amount of 150 μl/well. After the incubation at room temperature for 2 hours, buffer B was removed and the plate was washed with PBS once.
Jurkat cells were washed with Dulbecco modified Eagle medium (SIGMA, hereinafter referred to as “DMEM”) once. Then, the cells were again suspended in a binding buffer (DMEM containing 20 mM HEPES, 0.1% BSA, 2 mM MnCl2 and 50% human blood serum (Sigma)) to become 1×10^6 cells/mL.
Sixty μl of a test substance of various concentrations obtained by the dilution with the binding buffer was added to a round-bottom, 96-well plate (IWAKI). Immediately thereafter, 60 μl of the Jurkat cells (1×10^6 cells/ml) were added thereto and shaken on a plate shaker (IKA-Labortechnik, IKA-SCHUTTLER MTS-4) at 1000 rpm for 10 seconds. In 120 μL of the cell suspension to which the test substance was added, each 100 μL thereof was transferred on the VCAM-1/Fc-coated plate and incubated in dark place at room temperature for 60 minutes. After the shaking on the plate shaker at 1000 rpm for 30 seconds, the solution was immediately removed. Then, the unbound cells were removed by washing them with PBS once. A buffer C (PBS containing 0.82% Triton X-100) was added to the plate in an amount of 70 μL/well. After the shaking on the plate shaker at 1000 rpm for 5 minutes, the bound Jurkat cells were lysed. After centrifuging the cells on a plate centrifuge (SIGMA 4-15C) at room temperature at 2500 rpm for 5 minutes, 50 μL of supernatant thereof was transferred to a 96-well microtiter plate (Nunc Maxisorp). Each 50 μL of Substrate Buffer (Promega, CytoTox 96 Non-Radioactive Cytotoxicity Assay) was added thereto, shaken on a plate shaker at 1000 rpm for 10 seconds and reacted in dark place at room temperature for 30 minutes. Then, each 50 μL of Stop Solution (Promega, CytoTox 96 Non-Radioactive Cytotoxicity Assay) was added thereto and shaken on a plate shaker at 1000 rpm for 10 seconds. […] The absorbance thus obtained detects an activity of lactate dehydrogenase (LDH) dissolved in the supernatant of each well. Namely, the absorbance is proportional to the number of remaining Jurkat cells on the plate via the binding to VCAM-1. The test was conducted in duplicate and the binding rate of each test substance in various concentrations was determined while the absorbance of the test substance-free well was determined to be 100% and the absorbance of the Jurkat-cell-free well was determined to be 0%. The concentration for the 50% inhibition of binding, IC50, was calculated.

Six compounds from patent US7345049B2, “Phenylalanine derivatives” (Ajinomoto Co., Inc., priority 2003, dated 2008) can be followed below.

T1 sequence (P13612 34-1032): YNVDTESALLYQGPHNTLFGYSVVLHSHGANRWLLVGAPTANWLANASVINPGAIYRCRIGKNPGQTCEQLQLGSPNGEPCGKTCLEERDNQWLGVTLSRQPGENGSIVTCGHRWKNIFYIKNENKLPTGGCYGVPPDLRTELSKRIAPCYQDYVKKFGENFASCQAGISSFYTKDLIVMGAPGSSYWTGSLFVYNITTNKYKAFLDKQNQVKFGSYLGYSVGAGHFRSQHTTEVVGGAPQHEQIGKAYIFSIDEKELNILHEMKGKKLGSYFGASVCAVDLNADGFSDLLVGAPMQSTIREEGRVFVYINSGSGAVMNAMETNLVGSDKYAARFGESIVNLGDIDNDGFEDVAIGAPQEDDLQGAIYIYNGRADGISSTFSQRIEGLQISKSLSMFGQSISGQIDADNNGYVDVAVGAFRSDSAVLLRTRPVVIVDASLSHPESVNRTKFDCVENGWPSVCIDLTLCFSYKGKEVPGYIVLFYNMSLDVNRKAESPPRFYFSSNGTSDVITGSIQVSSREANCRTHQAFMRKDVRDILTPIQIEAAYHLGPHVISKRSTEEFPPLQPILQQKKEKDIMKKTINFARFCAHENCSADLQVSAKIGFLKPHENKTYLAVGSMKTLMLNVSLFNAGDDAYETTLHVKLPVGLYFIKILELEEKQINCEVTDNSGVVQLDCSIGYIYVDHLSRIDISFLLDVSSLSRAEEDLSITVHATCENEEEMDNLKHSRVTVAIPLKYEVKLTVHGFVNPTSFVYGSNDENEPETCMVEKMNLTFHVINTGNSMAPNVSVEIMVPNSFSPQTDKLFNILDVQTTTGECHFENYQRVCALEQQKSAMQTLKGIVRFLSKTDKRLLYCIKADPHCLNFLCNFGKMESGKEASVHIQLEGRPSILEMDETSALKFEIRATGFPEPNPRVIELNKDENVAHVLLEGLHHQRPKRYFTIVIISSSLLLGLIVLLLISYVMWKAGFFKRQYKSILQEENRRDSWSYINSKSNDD
T1 sequence (P05556 21-798): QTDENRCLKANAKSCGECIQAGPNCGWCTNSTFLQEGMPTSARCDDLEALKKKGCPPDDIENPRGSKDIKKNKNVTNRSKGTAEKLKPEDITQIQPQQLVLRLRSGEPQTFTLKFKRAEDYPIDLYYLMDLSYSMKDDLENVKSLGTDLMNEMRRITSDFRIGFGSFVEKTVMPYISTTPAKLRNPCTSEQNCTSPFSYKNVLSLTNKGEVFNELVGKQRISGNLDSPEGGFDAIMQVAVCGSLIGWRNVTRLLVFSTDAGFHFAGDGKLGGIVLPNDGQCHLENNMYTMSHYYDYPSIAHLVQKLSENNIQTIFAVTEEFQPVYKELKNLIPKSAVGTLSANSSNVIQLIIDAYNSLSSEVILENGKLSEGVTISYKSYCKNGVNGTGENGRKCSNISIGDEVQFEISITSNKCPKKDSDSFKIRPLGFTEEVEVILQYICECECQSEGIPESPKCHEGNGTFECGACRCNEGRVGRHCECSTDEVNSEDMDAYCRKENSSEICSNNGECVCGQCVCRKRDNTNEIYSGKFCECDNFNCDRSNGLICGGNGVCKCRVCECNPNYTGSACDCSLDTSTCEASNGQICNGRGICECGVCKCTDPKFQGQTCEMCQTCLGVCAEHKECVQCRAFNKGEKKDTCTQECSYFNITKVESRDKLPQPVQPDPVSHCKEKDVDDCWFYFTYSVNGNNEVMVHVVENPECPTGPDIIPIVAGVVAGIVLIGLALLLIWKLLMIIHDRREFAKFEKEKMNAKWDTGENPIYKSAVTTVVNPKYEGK

Take `CNCc1ccc2c(c1)c(=O)n(-c1ccc(C[C@H](NC(=O)c3c(Cl)cccc3Cl)C(=O)O)cc1)c(=O)n2C` [Example 99]: in data set [1], the clearance is 3.83 mL/min/kg. Also, in data set [2], the half-maximal inhibitory concentration (IC50) amounted to 11.2 nM. For the compound `Cn1c(=O)n(-c2ccc(C[C@H](NC(=O)c3c(Cl)cccc3Cl)C(=O)O)cc2)c(=O)c2ccc(N3CCCC3)cc21.O=C(O)C(F)(F)F` [Example 40, N-(2,6-dichlorobenzoyl)-4-[1-methyl-7-(pyrrolidine-1-yl)-2,4-quinazoline-dione-3-yl]-L-phenylalanine trifluoroacetate], the clearance in data set [1] was 3.17 mL/min/kg.

On to `CN(C)Cc1ccc2c(=O)n(-c3ccc(C[C@H](NC(=O)c4c(Cl)cccc4Cl)C(=O)O)cc3)c(=O)n(C)c2c1.O=C(O)C(F)(F)F` [Example 34, N-(2,6-dichlorobenzoyl)-4-[7-[(dimethylamino)methyl]-1-methyl-2,4-quinazoline-dione-3-yl]-L-phenylalanine Trifluoroacetate], for which the clearance in data set [1] was 5.17 mL/min/kg. Besides, in data set [2], the IC50 is 10.5 nM. Regarding `CSc1ccc2c(c1)c(=O)n(-c1ccc(C[C@H](NC(=O)c3c(Cl)cccc3Cl)C(=O)O)cc1)c(=O)n2C` [Example 37, N-(2,6-dichlorobenzoyl)-4-[1-methyl-6-(methylthio)-2,4-quinazoline-dione-3-yl]-L-phenylalanine], the clearance in data set [1] is 5.5 mL/min/kg. `Cn1c(=O)n(-c2ccc(C[C@H](NC(=O)c3c(Cl)cccc3Cl)C(=O)O)cc2)c(=O)c2cc(-n3ccnc3N)ccc21` [Example 59]: the clearance in data set [1] is 5.33 mL/min/kg. Take `CCNCc1ccc2c(c1)c(=O)n(-c1ccc(C[C@H](NC(=O)c3c(Cl)cccc3Cl)C(=O)O)cc1)c(=O)n2C` [Example 54]: the clearance in data set [1] is 4.5 mL/min/kg. Besides, the IC50 in data set [2] was 14.5 nM.

One may read the clearance as the volume of plasma or blood freed of the substance per unit of time. As usually defined, the IC50 is the concentration needed to halve the response being measured.
